Test results taken from patent US7166642B1, “Use of cyclohexenone long-chain alcohol for treating neurodegenerative diseases” (Meiji Dairies Corporation, priority 1999, dated 2007).

Key:
[1] = system: Neurons originating from the cerebral hemisphere of rat fetus; assay: Neurite-extension effect; type: cell-based; set-up: key to Neurite-extension effect: 0: No effect; +: Faintly effective; ++: Slightly effective; +++: Effective >160%; ++++: Remarkably effective >200%; details: for activity at 0.01 µM: Rattus norvegicus, Neuron, 72 h; for activity at 0.01 µM / Neurite-extension effect: 1×10^−8 M, cultured for three days, phase-contrast microscope; for neurite-extension effect as compared with bFGF (in words): summary of Table 1
Protocol: Neurons originating from the cerebral hemisphere of rat fetus (13–15 days) were used. The neurons were cultured according to a method described by Borg, J. et al. (Borg, J. et al.: Dev. Brain Res., 18: 37, 1985). Neurons in an amount of 1.5×10^5 were dispersed on a polylysine-coated dish (35 mm), and DMEM (supplemented with insulin, transferrin, progesterone, sodium selenate, and putrescine) was added thereto in an amount of 3 ml. Compound (1) of the present invention was dissolved in ethanol, and then the solution was added thereto such that the concentration became 1×10^−8 M. The neurons had been cultured for three days without the culture medium being changed. Thereafter, the neurons were fixed by use of PBS containing 2% glutaraldehyde and observed under a phase-contrast microscope.

[2] = system: transgenic mice expressing an SOD-1 mutant gene; assay: Bar test for confirming the motor function in transgenic mice expressing the mutant SOD-1 gene; type: in vivo, mouse; details: 8 mg/kg i.p. three times a week; measured from 80 to 91 days after birth; metallic bar 10 mm diameter, 45 cm length
Protocol: (2) Meanwhile, during the survival test (1) of the transgenic mice, bar test for confirming the motor function was conducted. In this test, the mouse to which was administered compound of Preparation 10 and control mouse were compared in the time (seconds) required for their passing over a metallic bar having the size of 10 mm in diameter and 45 cm in length. The measurement was carried out from 80 days to 91 days after birth. […] However, when compared the difference between the time at the initial date and the time at the final date, of the mouse to which was administered compound of Preparation Example 10 and of the control mouse, the ratio of the difference of the mouse to which was administered compound of Preparation Example 10 to the difference of the control mouse was about 40%.

[3] = system: transgenic mice expressing an SOD-1 mutant gene (G86R); assay: Survival test for transgenic mice expressing an SOD-1 mutant gene; type: in vivo, mouse
Protocol: Ten transgenic mice were subjected to the survival test. The transgenic mice employed were those in which Gly-86 in the fourth exon of a mouse SOD-1 gene is mutated to Arg (G86R) (Ripps M. E., et al.: Proc. Natl. Acad. Sci. USA. 92: 689–693, 1995). The compound of Preparation Example 10 [3-(14-hydroxytetradecyl)-4-methyl-2-cyclohexen-1-one] was dissolved in ethanol/Tween 80/physiological saline (5/2.85/92.15). The solution was intraperitoneally (i.p.) administered to five specimens at an effective dose of 2 mg/kg for 40 continuous days, and physiological saline alone was similarly administered to the other five specimens. One mouse died due to injection complication before elapse of 90 days. The other four mice died at day 150. All control animals died at about day 90. The life was prolonged by 50% or more, which has high significance.
(1) Transgenic mice expressing an SOD-1 mutant gene were subjected to the survival test in the same manner as Test Example 1 except that 8 mg/kg of compound of Preparation Example 10 was intraperitoneally administered three times a week until the mice died. […] The life was prolonged by 30% or more.
(3) Moreover, in the survival test of transgenic mice (1), onset day (i.e., the day from which mouse becomes impossible to move) was compared between the mouse to which was administered compound of Preparation Example 10 and the control mouse. As a result, for the mouse to which was administered compound of Preparation Example 10, when compared to the control mouse, a prolonged time to the onset day by […] was observed, onset day being prolonged by 20%.

Q: Which melting point does the source give for `CCCCCCCCCCC(O)C1=CC(=O)CCC1` (stereo not drawn) [Preparation Example 2, 3-(1-hydroxy-undecyl)-2-cyclohexen-1-one] here?
A: 34 to 35 °C

Q: For `O=C1C=C(CCCCCCCCCCCCO)CCC1` [Preparation Example 3, 3-(12-hydroxy-dodecyl)-2-cyclohexen-1-one], which melting point is on record?
A: 35 to 36 °C

Q: Which melting point does the source give for `CCCCCCCCCCCC(O)CC1=CC(=O)CCC1` (stereo not drawn) [Preparation Example 4, 3-(β-hydroxy-tridecyl)-2-cyclohexen-1-one] here?
A: 42 to 43 °C

Q: For `O=C1C=C(CCCCCCCCCCCCCCO)CCC1` [Preparation Example 5, 3-(14-hydroxy-tetradecyl)-2-cyclohexen-1-one], which melting point is on record?
A: 44 to 45 °C

Q: For `CC1CCC(=O)C=C1CCCCCCCCCCCCO` (stereo not drawn) [Preparation Example 8, 3-(12-hydroxydodecyl)-4-methyl-2-cyclohexen-1-one], which activity at 0.01 µM [1] is on record?
A: > 160%

Q: Which results are given for `CCCCCCCCCCCC(O)CC1=CC(=O)CCC1C` (stereo not drawn) [Preparation Example 9, 3-(β-hydroxytridecyl)-4-methyl-2-cyclohexen-1-one]?
A: activity at 0.01 µM [1]: > 200%; neurite-extension effect as compared with bFGF (in words) [1]: remarkably excellent

Q: Which results are given for `CC1CCC(=O)C=C1CCCCCCCCCCCCCCO` (stereo not drawn) [Preparation Example 10, 3-(14-hydroxytetradecyl)-4-methyl-2-cyclohexen-1-one]?
A: ratio of the difference (time at initial date vs final date for passing the bar) of treated mouse to that of control mouse [2]: about 40%; prolongation of life ([3]; Test Example 1: 2 mg/kg i.p. for 40 continuous days, versus saline control): ≥ 50%; day at which treated mice died ([3]; Test Example 1: 2 mg/kg i.p. for 40 continuous days, four of five mice (one died of injection complication before day 90), controls died at about day 90): 150 days; activity of mice during the test ([3]; Test Example 1, control mice were morbid and could not act appropriately): very active; survival of two of the treated mice ([3]; Test Example 2: 8 mg/kg i.p. three times a week until death): more than 200 days; day at which treated mice died, on average ([3]; Test Example 2: 8 mg/kg i.p. three times a week until death, controls died at around day 110): ~150 days; prolongation of onset day ([3]; Test Example 2: 8 mg/kg i.p. three times a week, compared to control): 20%; prolongation of life ([3]; Test Example 2: 8 mg/kg i.p. three times a week, versus control): ≥ 30%; activity at 0.01 µM [1]: > 200%; neurite-extension effect as compared with bFGF (in words) [1]: remarkably excellent

Q: For `CC1(C)CCC(=O)C=C1CCCCCCCCCCCO` [Preparation Example 12, 3-(11-hydroxyundecyl)-4,4-dimethyl-2-cyclohexen-1-one], which Neurite-extension effect [1] is on record?
A: ++

Q: With `CC1(C)CCC(=O)C=C1CCCCCCCCCCCCO` [Preparation Example 13, 3-(12-hydroxydodecyl)-4,4-dimethyl-2-cyclohexen-1-one] as the compound, how does the activity at 0.01 µM [1] read?
A: > 160%

Q: For `CCCCCCCCCCCC(O)CC1=CC(=O)CCC1(C)C` (stereo not drawn) [Preparation Example 14, 3-(β-hydroxytridecyl)-4,4-dimethyl-2-cyclohexen-1-one], which activity at 0.01 µM [1] is on record?
A: > 160%

Q: For `CC1(C)CCC(=O)C=C1CCCCCCCCCCCCCCO` [Preparation Example 15, 3-(14-hydroxytetradecyl)-4,4-dimethyl-2-cyclohexen-1-one], which activity at 0.01 µM [1] is on record?
A: > 160%

Q: For `CC1=C(CCCCCCCCCCCCO)CCCC1=O` [Preparation Example 18, 3-(12-hydroxydodecyl)-2-methyl-2-cyclohexen-1-one], which Neurite-extension effect [1] is on record?
A: ++

Q: With `CC1=C(CCCCCCCCCCCCCCO)CCCC1=O` [Preparation Example 20, 3-(14-hydroxytetradecyl)-2-methyl-2-cyclohexen-1-one] as the compound, how does the activity at 0.01 µM [1] read?
A: > 200%

Q: And the “neurite-extension effect as compared with bFGF (in words)” value [1]?
A: remarkably excellent

Q: Which Neurite-extension effect [1] does the source give for `CC1=C(CCCCCCCCCCC(C)O)C(C)(C)CCC1=O` (stereo not drawn) [Preparation Example 22, 3-(11-hydroxydodecyl)-2,4,4-trimethyl-2-cyclohexen-1-one] here?
A: ++

Q: For `CC1=C(CCCCCCCCCCCCCCO)C(C)(C)CCC1=O` [Preparation Example 23, 3-(14-hydroxytetradecyl)-2,4,4-trimethyl-2-cyclohexen-1-one], which activity at 0.01 µM [1] is on record?
A: > 160%

Q: And the “neurite-extension effect as compared with bFGF (in words)” value [1]?
A: remarkably excellent

Q: Which results are given for `CC1=C(CCCCCCCCCCCCCCCO)C(C)(C)CCC1=O` [Preparation Example 24, 3-(15-hydroxypentadecyl)-2,4,4-trimethyl-2-cyclohexen-1-one]?
A: activity at 0.01 µM [1]: > 200%; neurite-extension effect as compared with bFGF (in words) [1]: remarkably excellent

Q: Which Neurite-extension effect [1] does the source give for “BFGF: bFGF, comparison substance in the neurite-extension test of Table 1 [reference compound]” here?
A: ++
